pIC50, pKd, pKi: −log10 of the molar value. Where “and” joins values, the source holds several entries; their conditions need not be identical. Equal entries are not always repeated. Entries after “also recorded” stand apart in the source; their conditions may differ. Starred links: 1 amine or outer side, 2 acyl side, 3 side chain; linkers in the order of their positions; H or OH if unused. Positions of bridges follow the written chain, without caps; N, C: chain ends. Non-standard residues stand in square brackets, D forms with d. Residues, ends and D or L forms follow the SMILES beside them. Chains are numbered I, II in the order given. Actinocin(9to1) = Cc1c2oc3c(C)ccc(C(=O)[*:1])c3nc-2c(C(=O)[*:2])c(N)c1=O; NMeV = CN[C@H](C(=O)O)C(C)C; Sar = CNCC(=O)O
Experiments:
eIF4E wild-type = target: T1, eIF4E wild-type (Mus musculus, UniProt P63073); test: tryptophan fluorescence quenching titration of nucleoside/nucleotide binding
T1 construct: made in house
Method: For fluorescence titrations, mouse eIF4E, which differs from human eIF4E by four nonconserved amino acids, was produced as described. For NMR spectroscopy, mouse eIF4E was expressed as a fusion with the B1 domain of protein G (G4E, kind gift of Gerhard Wagner, Harvard University, Cambridge, Mass.), in BL21 (DE-3) cells by induction with 0.8 mM isopropyl-β-D-thiogalactopyranoside at 18° C. for 20 h in M9 minimal media containing 1 g/l ^15NH4Cl as the sole nitrogen source (Cambridge Isotopes). Cells were lysed at 4° C. by sonication in 0.1 M NaCl/50 mM Tris.HCl (pH 7.5/0.5 mM EDTA/0.5% (vol/vol) Nonidet P-40/10 mM 2-mercaptoethanol/1 mM PMSF. Lysates were cleared by centrifugation at 30,000×g, adsorbed onto m^7G diphosphate-conjugated agarose (Amersham Pharmacia), and extensively washed with 0.1 M NaCl/20 mM Tris.HCl (pH 7.5)/0.5 mM EDTA (Buffer A) at 4° C. Subsequently, beads were washed with 0.1 mM GTP in Buffer A, and G4E was eluted with 5 mM m^7G in Buffer A. Eluate was diluted with 20 mM Na2PO4 (pH 7.5) to reduce NaCl concentration to 50 mM, applied to Sepharose Q anion exchange column (Amersham Pharmacia), and eluted with a linear gradient of NaCl in 20 mM Na2PO4 (pH 7.5) at 4° C. Eluate was dialyzed extensively against 0.1 M NaCl/50 mM Na2PO4 (pH 6.5)/5 mM DTT at 4° C. to produce apo-G4E, as verified by using NMR spectroscopy and fluorescence titrations. Purity and identity of G4E were verified by using SDS/PAGE and electrospray ionization MS. Proteins were concentrated by using Amicon concentrators (Millipore).
Fluorescence measurements were performed by using a home-built fluorimeter, as described. All titrations were performed in 0.3 M NaCl/10 mM Na2PO4 (pH 7.5)/1 μM zinc in 0.3×0.3 cm^2 fluorescence cuvette (Hellma), by using eIF4E concentration of 2 μM. […] Corrected relative fluorescence intensities were normalized, and fluorescence quenching curves were fit to a heuristic single-site-binding expression: I/I0=Kd^n/(x^n+Kd^n) where x is ligand concentration, Kd is the apparent dissociation constant, and n is the Hill coefficient.

HCV polymerase = HCV polymerase (Hepatitis C virus genotype 1a, UniProt P27958); conditions: read-out: dissociation constant for HCV polymerase; cited from earlier work
eIF4E:m7G binding (G4E) = target: T2, eIF4E:m7G binding (G4E) (UniProt P06654+P63073); test: m7G-Sepharose affinity chromatography competition; design: species or system mouse
T2 construct: made in house; host or cells: E. coli BL21 (DE-3); construct a gift of Gerhard Wagner
Method: FIG. 9. […] Washed beads (three times with 75 bed volumes) were incubated with 50 uM of compounds as indicated for 30 min at room temperature. Beads were washed (three times with 75 bed volumes) to remove dissociated eIF4E, and eIF4E remaining bound to beads was resolved using SDS-PAGE, and visualized using Western blotting and chemiluminescence. […] Washed beads (five times with 50 bed volumes of LCB buffer) were incubated with 5 bed volumes of 50 uM of compounds as indicated for 20 min at 4° C. Then 20 uL of the supernatant containing dissociated eIF4E was transferred to a new tube, cleared of trace beads containing bound eIF4E, and resolved using SDS-PAGE, and visualized using Western blotting and chemiluminescence.
m^7G-Sepharose beads (Amersham Pharmacia, 20-μl slurry) were bound with 1.5 ml of 2 μM G4E, purified as described above, in 0.3 M NaCl/0.1 M sodium phosphate (pH 7.5)/10 μM protease-free BSA (USB)/0.1% Nonidet P-40 (Buffer B) for 30 min at room temperature. […] Upon washing released G4E three times with Buffer B, G4E remaining bound to m^7G-Sepharose was boiled in Laemmli buffer (10% glycerol/2% SDS/100 mM DTT/80 mM Tris.HCl/0.06% bromophenol blue, pH 6.8), subjected to SDS/PAGE, and visualized by using Western blotting, as described below.

cap-driven translation = conditions: cited from earlier work
4E-SE mRNA export = test: export of LacZ-4E-SE mRNA (c/n ratio, real time PCR) in eIF4E overexpressing U2OS cells; assay type: cell-based, human; conditions: for export of 4E-SE containing / cyclin D1 mRNA under inhibition of RNA or protein synthesis: actinomycin D 10 μg/ml, cycloheximide 100 μg/ml, 1 hour
Method: eIF4E and PML stably transfected NIH3T3 and U937 cells were as described (Topisirovic et al., 2002; Topisirovic et al., 2003a). U937 cells were used to analyze endogenous Pim1, which is not expressed in NIH3T3 cells. LacZ/LacZ-4E-SE with or without 2Flag-eIF4E as well as TetON LacZ system were stably transfected in U2OS cells. For NXF1 depletion, U2OS cells were transfected with Lipofectamine 2000 and 10 nM siRNA duplex HSC.RNAI.N006362.1.3 (IDT) according to the manufacturer's instruction. Cells were analyzed 72 h after transfection. Actinomycin D, cycloheximide and leptomycin B were all cell culture grade (Sigma).
Immunopurification was as previously published (Culjkovic et al., 2005). Real Time PCR analyses were performed using Sybr Green PCR Master mix (ABI) in Mx3000P™ thermal cycler (Stratagene), and data analyzed with MxPro software (Stratagene). All conditions were described previously (Culjkovic et al., 2005). All calculations were done using the relative standard curve method described in Applied Biosystems User Bulletin #2.
Fractionation and RNA isolation were as described (Lai and Borden, 2000; Topisirovic et al., 2002). Probes for U6 and tRNAlys for Northern blot analysis were previously described (Topisirovic et al., 2002).

[1] = target: T3, nuclear eIF4E-cyclin D1 mRNA association (Homo sapiens, UniProt P06730); test: eIF4E immunoprecipitation from nuclear lysates with cap analogue competition, RT-PCR; assay type: biochemical; conditions: 50 uM analogue
T3 construct: endogenous in cells; host or cells: HEK293T cells, nuclear lysate

[2] = target: cap-binding complex (CBC) (Homo sapiens, UniProt P52298); conditions: cited from earlier work
eIF4E = eIF4E (Homo sapiens, UniProt P06730); conditions: cited from earlier work
Chain of eIF4E (P06730 whole entry, species assumed): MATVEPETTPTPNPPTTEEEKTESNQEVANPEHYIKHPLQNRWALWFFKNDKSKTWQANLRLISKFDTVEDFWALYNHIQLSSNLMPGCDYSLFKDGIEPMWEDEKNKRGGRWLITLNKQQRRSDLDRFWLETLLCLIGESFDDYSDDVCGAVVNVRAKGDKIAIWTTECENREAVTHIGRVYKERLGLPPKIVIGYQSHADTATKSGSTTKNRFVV

T2 sequence (P06654+P63073 fused): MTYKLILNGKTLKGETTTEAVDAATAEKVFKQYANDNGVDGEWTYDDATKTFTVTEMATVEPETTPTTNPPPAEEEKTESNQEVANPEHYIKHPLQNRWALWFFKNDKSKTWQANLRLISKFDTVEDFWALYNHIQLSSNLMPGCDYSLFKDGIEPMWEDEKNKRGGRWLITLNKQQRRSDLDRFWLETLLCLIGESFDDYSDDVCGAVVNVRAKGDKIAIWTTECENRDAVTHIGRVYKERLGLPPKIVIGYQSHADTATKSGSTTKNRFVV
T1 sequence (P63073 whole entry): as the sequence (P06730 whole entry, species assumed) above, with P12T, T16P, T17A, E174D counted along it
T3 sequence (P06730 2-217 limits assumed): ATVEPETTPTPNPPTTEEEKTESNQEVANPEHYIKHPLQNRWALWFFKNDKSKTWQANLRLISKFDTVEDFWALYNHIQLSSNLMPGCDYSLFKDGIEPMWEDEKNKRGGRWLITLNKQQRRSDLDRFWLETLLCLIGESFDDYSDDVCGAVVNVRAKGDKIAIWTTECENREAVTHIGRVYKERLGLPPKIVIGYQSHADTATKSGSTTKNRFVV
Chain of HCV polymerase (P27958 2421-3011): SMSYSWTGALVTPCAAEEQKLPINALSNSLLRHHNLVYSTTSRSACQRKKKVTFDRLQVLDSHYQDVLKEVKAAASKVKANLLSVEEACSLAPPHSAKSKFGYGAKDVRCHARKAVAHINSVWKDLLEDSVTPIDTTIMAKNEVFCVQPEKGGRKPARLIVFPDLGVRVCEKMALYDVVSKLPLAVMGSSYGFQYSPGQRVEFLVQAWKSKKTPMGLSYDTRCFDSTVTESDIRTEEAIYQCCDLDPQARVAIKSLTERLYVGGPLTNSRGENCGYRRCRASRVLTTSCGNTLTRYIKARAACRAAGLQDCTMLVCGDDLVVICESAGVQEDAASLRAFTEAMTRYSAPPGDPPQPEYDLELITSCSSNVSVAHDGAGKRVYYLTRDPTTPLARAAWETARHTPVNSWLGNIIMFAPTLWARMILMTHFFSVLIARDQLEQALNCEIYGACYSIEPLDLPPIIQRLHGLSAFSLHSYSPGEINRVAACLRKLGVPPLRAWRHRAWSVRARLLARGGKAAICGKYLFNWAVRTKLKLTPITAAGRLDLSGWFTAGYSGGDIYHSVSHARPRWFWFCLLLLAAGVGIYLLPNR
Chain of cap-binding complex (CBC) (P52298 whole entry): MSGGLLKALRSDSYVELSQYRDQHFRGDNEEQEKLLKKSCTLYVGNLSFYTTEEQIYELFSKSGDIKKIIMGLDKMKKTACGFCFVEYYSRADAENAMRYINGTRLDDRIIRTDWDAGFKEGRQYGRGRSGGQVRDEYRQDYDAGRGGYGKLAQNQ
Chain of cap-binding complex (CBC) (Q09161 whole entry partner): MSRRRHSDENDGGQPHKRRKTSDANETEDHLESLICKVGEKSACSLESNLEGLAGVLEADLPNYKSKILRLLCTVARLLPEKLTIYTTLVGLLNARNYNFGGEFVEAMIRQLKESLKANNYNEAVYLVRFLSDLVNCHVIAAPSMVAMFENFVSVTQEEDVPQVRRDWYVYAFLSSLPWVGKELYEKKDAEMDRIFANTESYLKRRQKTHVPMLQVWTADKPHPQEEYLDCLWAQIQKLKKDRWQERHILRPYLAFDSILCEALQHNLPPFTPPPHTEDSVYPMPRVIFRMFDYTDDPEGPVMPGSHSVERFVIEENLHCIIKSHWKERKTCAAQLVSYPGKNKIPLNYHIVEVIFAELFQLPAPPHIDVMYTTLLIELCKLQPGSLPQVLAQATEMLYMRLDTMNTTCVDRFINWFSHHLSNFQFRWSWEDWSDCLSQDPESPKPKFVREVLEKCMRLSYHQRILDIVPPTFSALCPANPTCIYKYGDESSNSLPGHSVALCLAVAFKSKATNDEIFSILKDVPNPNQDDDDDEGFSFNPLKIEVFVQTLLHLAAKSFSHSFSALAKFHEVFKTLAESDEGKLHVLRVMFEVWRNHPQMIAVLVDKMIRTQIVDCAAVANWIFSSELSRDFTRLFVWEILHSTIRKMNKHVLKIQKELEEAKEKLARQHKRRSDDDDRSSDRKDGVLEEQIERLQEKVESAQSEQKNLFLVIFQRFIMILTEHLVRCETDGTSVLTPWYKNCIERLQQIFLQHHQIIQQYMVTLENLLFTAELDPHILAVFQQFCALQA

NC(=O)c1ncn([C@@H]2O[C@H](CO[P@@](=O)(O)O[P@](=O)(O)OP(=O)(O)O)[C@@H](O)[C@H]2O)n1 [RTP, Ribavirin-5′ triphosphate]
pKd (eIF4E wild-type; fluorescence spectroscopy, wild-type eIF4E, read-out: apparent dissociation constant (Kd) for eIF4E): 6.89 and ~7.00 | pKd (HCV polymerase): 3.24 | competition with m7G binding, protocol of Yan et al. (eIF4E:m7G binding (G4E); 0.1 M KCl, 10 mM HEPES-KOH pH 8.0, presumed 4 C): apparent failure of RTP to compete | competition with eIF4E:m7G binding (eIF4E:m7G binding (G4E); 0.3 M NaCl, 0.1 M sodium phosphate pH 7.5, room temperature, micromolar concentrations): compete with the binding of eIF4E:m7G | pIC50 (eIF4E:m7G binding (G4E); Western blot of eIF4E remaining bound, read-out: concentration giving 50% reduction of eIF4E binding to m7G-Sepharose): ~6.00 | pKi (eIF4E:m7G binding (G4E); read-out: apparent inhibition constant (Ki) of eIF4E:m7G binding): ~6.52

Cn1c[n+]([C@@H]2O[C@H](COP(=O)(O)OP(=O)([O-])O)[C@@H](O)[C@H]2O)c2nc(N)[nH]c(=O)c21 [m7GDP]
reduction of cap-driven firefly luciferase activity (cap-driven translation; 1 mM, Yan et al. 2005): fourfold

C[C@@H]1C[C@@H]([C@H](O)CC2CC(=O)NC(=O)C2)C(=O)[C@@H](C)C1 [cycloheximide]
export of 4E-SE containing / cyclin D1 mRNA under inhibition of RNA or protein synthesis (4E-SE mRNA export): not modulated

NC(=O)c1cn([C@@H]2O[C@H](CO)[C@@H](O)[C@H]2O)nn1 [Rib4C, 1-β-D-ribofuranosyl-1,2,3-triazole-4-carboxamide]
binding to eIF4E (eIF4E wild-type; in vitro): failed to bind eIF4E

Nc1nc2c(ncn2[C@@H]2O[C@H](COP(=O)(O)OP(=O)(O)OP(=O)(O)OC[C@H]3O[C@@H](n4cnc5c(=O)[nH]c(N)nc54)[C@H](O)[C@@H]3O)[C@@H](O)[C@H]2O)c(=O)[nH]1 [GpppG]
association of cyclin D1 mRNA with nuclear eIF4E [1]: does not disrupt

CCC(=C/[C@H](C)C/C=C/C(C)=C/[C@@H](C)C(=O)[C@@H](C)[C@H](O)[C@@H](C)C/C(C)=C/C(=O)O)/C=C/[C@@H]1OC(=O)C=C[C@@H]1C [LMB]
export of LacZ-4E-SE mRNA (4E-SE mRNA export; 10 ng/ml for 4 h): sensitive to LMB; also recorded: suppressed export

Cc1c2oc3c(C)ccc(C(=O)N[C@@H]4C(=O)N[C@H](C(C)C)C(=O)N5CCC[C@H]5C(=O)N(C)CC(=O)N(C)[C@@H](C(C)C)C(=O)O[C@@H]4C)c3nc-2c(C(=O)N[C@@H]2C(=O)N[C@H](C(C)C)C(=O)N3CCC[C@H]3C(=O)N(C)CC(=O)N(C)[C@@H](C(C)C)C(=O)O[C@@H]2C)c(N)c1=O [actinomycin D] (I: T[dV]P[Sar][NMeV] / II: T[dV]P[Sar][NMeV]; ester I:1-I:C, II:1-II:C; linker I:N-II:N via Actinocin(9to1))
export of 4E-SE containing / cyclin D1 mRNA under inhibition of RNA or protein synthesis (4E-SE mRNA export): did not affect export

NC(=O)c1ncn(C2OC(COP(=O)(O)OP(=O)(O)OP(=O)(O)OCC3OC(n4cnc5c(=O)[nH]c(N)nc54)C(O)C3O)C(O)C2O)n1 (centres unmarked) [RpppG]
inhibition of cap-driven translation (cap-driven translation; Westman et al. 2005): does not

Cn1c[n+]([C@@H]2O[C@H](COP(=O)(O)OP(=O)([O-])OP(=O)(O)OC[C@H]3O[C@@H](n4cnc5c(=O)[nH]c(N)nc54)[C@H](O)[C@@H]3O)[C@@H](O)[C@H]2O)c2nc(N)[nH]c(=O)c21 [m7GpppG]
association of cyclin D1 mRNA with nuclear eIF4E [1]: successfully disrupts | analog concentration inhibiting cap-driven translation (cap-driven translation; Westman et al. 2005): ca. 0.1 mM | pKd [2]: ~8.00

Nc1nc2c(ncn2[C@@H]2O[C@H](CO)[C@@H](O)[C@H]2O)c(=O)[nH]1 [guanosine]
binding to eIF4E relative to m7G cap, fold weaker (eIF4E): > 5000 fold

— US10472677B2, “Translational dysfunction based therapeutics” (Translational Therapeutics, Inc., priority 2005, dated 2019)
